Measurements published in ChEMBL document CHEMBL1201862, “PubChem BioAssay data set” (2004).
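Dose response: 5 concentrations. Exposure: 48 h. Format: 96-well plates. Endpoint: linear interpolation; highest concentration if not reached. At the GI50, growth is halved.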 The source made the active and inactive calls. No stated cut-off is given here; in the data, active = GI50 up to about 1.1 µM and inactive = higher. Square brackets hold non-standard residues; d marks the D form. Peptide text beside a SMILES is read from it. * marks the point of attachment. ξ: configuration not given here. Propanoyl(3-(4-MeO-Ph)) = COc1ccc(CCC(=O)*)cc1; Thr(3ξ) = CC(O)[C@H](N)C(=O)O; dNMeL = CN[C@H](CC(C)C)C(=O)O; ξLac = CC(O)C(=O)O

How the values were obtained:
Assay in all cases: growth of human tumour cells (NCI), 48 h
[1] = test system: SF-539
[2] = test system: HL-60
[3] = test system: M14
[4] = test system: SK-MEL-2
[5] = test system: SNB-19
[6] = test system: DU-145
[7] = test system: MDA-MB-435
[8] = test system: NCI-H23
[9] = test system: SR
[10] = test system: HCT-15
[11] = test system: UACC-257
[12] = test system: NCI-H522
[13] = test system: HCC 2998
[14] = test system: MDA-MB-231
[15] = test system: 786-0
[16] = test system: SK-MEL-28
[17] = test system: ACHN
[18] = test system: SF-268
[19] = test system: TK-10
[20] = test system: LOX IMVI

Row | Compound | GI50 [1] | GI50 [2] | GI50 [3] | GI50 [4] | GI50 [5] | GI50 [6] | GI50 [7] | GI50 [8] | GI50 [9] | GI50 [10] [nM] | GI50 [11] | GI50 [12] | GI50 [13] | GI50 [14] | GI50 [15] | GI50 [16] | GI50 [17] | GI50 [18] | GI50 [19] | GI50 [20]
1 | CCCCc1ccc(N2C(=O)c3cccnc3S2(=O)=O)cc1 | > 100 µM (inactive) | > 100 µM (inactive) | > 100 µM (inactive) | > 100 µM (inactive) | > 100 µM (inactive) | > 100 µM (inactive) | > 100 µM (inactive) | > 100 µM (inactive) | > 100 µM (inactive) | > 100000 | > 100 µM (inactive) | > 100 µM (inactive) | > 100 µM (inactive) | > 100 µM (inactive) | > 100 µM (inactive) | > 100 µM (inactive) | > 100 µM (inactive) | > 100 µM (inactive) |  | 
2 | C=C1C(=O)C23CC1CCC2C12CO[C@@]3(O)[C@@H](O)C1C(C)(C)C=CC2=O (stereo partly specified) | 0.861 µM (active) | 0.143 µM (active) | 2.75 µM (inactive) | 0.925 µM (active) | 1.41 µM (inactive) | 23.4 µM (inactive) | 3.78 µM (inactive) | 0.752 µM (active) | 0.186 µM (active) | 838 | 0.684 µM (active) | 1.24 µM (inactive) | 1.15 µM (inactive) | 3.85 µM (inactive) | 0.653 µM (active) | 0.738 µM (active) | 0.774 µM (active) | 1.65 µM (inactive) | 0.893 µM (active) | 3.63 µM (inactive)
3 | c1ccc(CSc2nc(N3CCCCC3)c3cn[nH]c3n2)cc1 | 18.4 µM (inactive) | 13.3 µM (inactive) | 19.8 µM (inactive) | 16.2 µM (inactive) | 25.2 µM (inactive) | 30.3 µM (inactive) | 22.4 µM (inactive) | 26.4 µM (inactive) | 25.3 µM (inactive) | 33200 | 18 µM (inactive) | 17 µM (inactive) | 18.7 µM (inactive) | 16.3 µM (inactive) | 25.2 µM (inactive) | 19.9 µM (inactive) | 27.2 µM (inactive) | 23.8 µM (inactive) | 30.1 µM (inactive) | 21 µM (inactive)
4 | CC(/C=C/C(=O)NO)=C\C(C)C(=O)c1ccc(N(C)C)cc1 (stereo unspecified) | 0.0267 µM (active) | 0.207 µM (active) | 0.0668 µM (active) | 0.217 µM (active) | 0.0281 µM (active) | 0.0176 µM (active) | 0.0159 µM (active) | 0.0331 µM (active) | < 0.0112 µM (active) | 31.3 | 0.0614 µM (active) | < 0.01 µM (active) | < 0.01 µM (active) | 0.0184 µM (active) | 0.0339 µM (active) | 0.479 µM (active) | 0.0231 µM (active) | 0.0309 µM (active) | < 0.0177 µM (active) | < 0.01 µM (active)
5 | CCC(C)N1CN(c2ccccc2)C2(CCN(CCCSc3ccc(F)cc3)CC2)C1=O (stereo unspecified) | 2.57 µM (inactive) | 3.79 µM (inactive) | 2.34 µM (inactive) |  | 5.52 µM (inactive) | 3.03 µM (inactive) | 3.05 µM (inactive) | 4.01 µM (inactive) | 3.32 µM (inactive) | 1750 | 2.74 µM (inactive) | 5.97 µM (inactive) | 2.04 µM (inactive) | 0.296 µM (active) | 2.89 µM (inactive) | 11.6 µM (inactive) | 3.15 µM (inactive) | 6.75 µM (inactive) | 3.27 µM (inactive) | 3.05 µM (inactive)
6 | COC(=O)[C@@H](NC(=O)[C@@H](CC(C)C)N(C)C(=O)[C@@H]1CCCN1C(=O)C(C)O)C(C)OC(=O)CCc1ccc(OC)cc1 (stereo partly specified) (H-[ξLac]P[dNMeL][Thr(3ξ)](Propanoyl(3-(4-MeO-Ph)))-OMe) | > 100 µM (inactive) | > 100 µM (inactive) | > 100 µM (inactive) | > 100 µM (inactive) | > 100 µM (inactive) | > 100 µM (inactive) | > 100 µM (inactive) | > 100 µM (inactive) | > 100 µM (inactive) | > 100000 | > 100 µM (inactive) | > 100 µM (inactive) | > 100 µM (inactive) | > 100 µM (inactive) | > 100 µM (inactive) | > 100 µM (inactive) | > 100 µM (inactive) | > 100 µM (inactive) | > 100 µM (inactive) | > 100 µM (inactive)
7 | c1cc(NC2=NCCO2)c2c(c1)OCO2 | > 100 µM (inactive) | > 100 µM (inactive) | > 100 µM (inactive) | > 100 µM (inactive) | > 100 µM (inactive) | > 100 µM (inactive) | > 100 µM (inactive) | > 100 µM (inactive) | > 100 µM (inactive) | > 100000 | > 100 µM (inactive) | > 100 µM (inactive) | > 100 µM (inactive) | > 100 µM (inactive) | > 100 µM (inactive) | > 100 µM (inactive) | > 100 µM (inactive) | > 100 µM (inactive) |  | > 100 µM (inactive)
